{"source": "paper PMC10121968", "about": "“Fosgonimeton, a Novel Positive Modulator of the HGF/MET System, Promotes Neurotrophic and Procognitive Effects in Models of Dementia” (Neurotherapeutics, 2022)", "key": {"[1]": {"test_system": "primary rat cortical neurons", "assay": "Neuroprotection, Cell Titer-Glo cell viability assay", "assay_type": "cell-based", "settings": "for percentage of recovery of cell viability: 1 µM, 24 h", "protocol": "A Cell Titer-Glo (CTG) Luminescent Cell Viability Assay (Promega, Cat #G7571, Madison, Wisconsin) was used to assess the neuroprotective potential of fosgo-AM. Brain cortices were dissected from P1–3 rat pups and homogenized in DMEM containing 10% FBS. The resulting suspension was then incubated with a DNase/papain/trypsin solution for 30 min at 37 °C, followed by incubation in a collagenase solution for 1 h. Cells were then seeded at 5000 cells/well in 384-well plates and maintained at 37 °C and 5% CO2 in Complete Neurobasal Medium supplemented with B27/GDNF/BDNF containing 10% FBS. One day later, cultures were switched to serum-free neurobasal medium supplemented with 2% B27 and maintained until neuronal maturity (35–40 DIV). Media were changed every 3 days, and fresh medium was applied 24 h before each experiment. Cells were then treated with fosgo-AM at 1 µM, 100 nM, 10 nM, or 1 nM in a 0.5% DMSO vehicle for 15 min, and subjected to several conditional insults, including 1-methyl-4-phenylpryidinium (MPP+; 500 µM), glutamate (25 µM), lipopolysaccharide (LPS; 1 µM), or hydrogen peroxide (H2O2; 1 µM) for 24 h. After 24 h, 25 µL CTG reagent was added to each well and the plate was incubated with shaking for 15 min. Luminescence measurements to assess relative levels of ATP were performed on an Envision plate reader (PerkinElmer, Waltham, Massachusetts). Data for the vehicle control were set to 100% cell viability, and data for each other group were averaged, normalized to vehicle control, and presented as mean ± SEM. Data were assessed for normality (Shapiro–Wilk) and homoscedasticity (Brown-Forsythe). Statistical analyses were performed using one-way ANOVA with Tukey’s Multiple Comparison test (Prism GraphPad, San Diego, California). A value of p < 0.05 was considered to represent a statistically significant difference."}, "TNF-α": {"test_system": "TNF-α", "assay": "TNF-α release in LPS-challenged THP-1 macrophages (ELISA)", "assay_type": "cell-based, human", "settings": "1 µM, 20 min pretreatment, LPS 50 ng/mL 24 h, vs LPS + vehicle", "protocol": "To determine the effect of fosgo-AM on LPS-induced cytokine release, we sought to determine the levels of interleukin-1β (IL-1β), interleukin-6 (IL-6), and tumor necrosis factor-α (TNF-α) in LPS-challenged THP-1–differentiated macrophages in the presence and absence of fosgo-AM. THP-1 monocytes were grown at 37 °C, 5% CO2 in Roswell Park Memorial Institute (RPMI) medium + 10% FBS until approximately 80% confluent. Cells were seeded in polystyrene-treated 96-well cell culture plates at approximately 50,000 cells/well in 100-µL complete media. 100 µL Phorbol myristate acetate was then added to each well for a final concentration of 100 ng/mL. The plate was then incubated for 3 days at 37 °C, 5% CO2 to prime the monocytes into macrophages. […] For cytokine quantification, cell culture supernatant was assayed by HTRF kits to assess levels of IL-1β (Human IL-1β kit, #62HIL1BPEG, Cisbio, Codolet, France) and IL-6 (Human IL-6 kit, 62HIL06PET, Cisbio, Codolet, France), and by ELISA (Human TNF-α ELISA kit, KHC3011, ThermoFisher, Waltham, Massachusetts) to determine the levels of TNF-α. […] Fluorescence emission at 2 different wavelengths (665 nm and 620 nm) were measured on an Envision plate reader (PerkinElmer, Waltham, Massachusetts), and HTRF ratio of the acceptor and donor emission signals for each well was calculated as follows: HTRF ratio = (665 nm/620 nm) × 10,000. […]"}}, "note": "Non-standard residues stand in square brackets, D forms with d. Residues, ends and D or L forms follow the SMILES beside them. *: point of attachment. Hexanoyl = CCCCCC(=O)*; Ahx = NCCCCCC(=O)O"}
{"smiles": "CCCCCC(=O)N[C@@H](Cc1ccc(O)cc1)C(=O)N[C@H](C(=O)NCCCCCC(N)=O)[C@@H](C)CC", "note": "[fosgo-AM] (Hexanoyl-Tyr-Ile-[Ahx]-NH2)", "values": [{"measurement": "percentage of recovery of cell viability", "setting": "[1]; versus H2O2 (1 µM)", "value": 144, "unit": "%"}, {"measurement": "percentage of recovery of cell viability", "setting": "[1]; versus LPS (1 µM)", "value": 93, "unit": "%"}, {"measurement": "percentage of recovery of cell viability", "setting": "[1]; versus MPP+ (500 µM)", "value": 85, "unit": "%"}, {"measurement": "percentage of recovery of cell viability", "setting": "[1]; versus glutamate (25 µM)", "value": 61, "unit": "%"}, {"measurement": "cell viability", "setting": "[1]; all tested concentrations (1 nM–1 µM), against all insults (MPP+, glutamate, LPS, H2O2)", "value": "Significant improvement in cell viability"}, {"measurement": "TNF-α release", "setting": "TNF-α", "value": "significant decrease"}]}
